Details: Liquid

CCCCCCn1cc[n+](C)c1.F[P-](F)(F)(F)(F)F [1-hexyl-3-methylimidazolium hexafluorophosphate]
Details	mass density [kg/m3]
293.15 K, 101.33 kPa, Vibrating tube method	1297
312.9 K, 10000 kPa, Bellows volumetry	1287
312.9 K, 20000 kPa, Bellows volumetry	1292
312.9 K, 30000 kPa, Bellows volumetry	1298
312.9 K, 40000 kPa, Bellows volumetry	1303
312.9 K, 50000 kPa, Bellows volumetry	1308
312.9 K, 60000 kPa, Bellows volumetry	1313
312.9 K, 70000 kPa, Bellows volumetry	1318
312.9 K, 80000 kPa, Bellows volumetry	1322
312.9 K, 90000 kPa, Bellows volumetry	1327
312.9 K, 100000 kPa, Bellows volumetry	1331
312.9 K, 110000 kPa, Bellows volumetry	1335
312.9 K, 120000 kPa, Bellows volumetry	1339
312.9 K, 130000 kPa, Bellows volumetry	1343
312.9 K, 140000 kPa, Bellows volumetry	1347
312.9 K, 150000 kPa, Bellows volumetry	1351
312.9 K, 160000 kPa, Bellows volumetry	1355
312.9 K, 170000 kPa, Bellows volumetry	1358
312.9 K, 180000 kPa, Bellows volumetry	1362
312.9 K, 190000 kPa, Bellows volumetry	1366
312.9 K, 200000 kPa, Bellows volumetry	1369
313.15 K, 101.33 kPa, Vibrating tube method	1280.7
332.6 K, 10000 kPa, Bellows volumetry	1271
332.6 K, 20000 kPa, Bellows volumetry	1277
332.6 K, 30000 kPa, Bellows volumetry	1283
332.6 K, 40000 kPa, Bellows volumetry	1289
332.6 K, 50000 kPa, Bellows volumetry	1294
332.6 K, 60000 kPa, Bellows volumetry	1299
332.6 K, 70000 kPa, Bellows volumetry	1304
332.6 K, 80000 kPa, Bellows volumetry	1309
332.6 K, 90000 kPa, Bellows volumetry	1313
332.6 K, 100000 kPa, Bellows volumetry	1318
332.6 K, 110000 kPa, Bellows volumetry	1322
332.6 K, 120000 kPa, Bellows volumetry	1326
332.6 K, 130000 kPa, Bellows volumetry	1330
332.6 K, 140000 kPa, Bellows volumetry	1334
332.6 K, 150000 kPa, Bellows volumetry	1338
332.6 K, 160000 kPa, Bellows volumetry	1342
332.6 K, 170000 kPa, Bellows volumetry	1346
332.6 K, 180000 kPa, Bellows volumetry	1350
332.6 K, 190000 kPa, Bellows volumetry	1353
332.6 K, 200000 kPa, Bellows volumetry	1357
333.15 K, 101.33 kPa, Vibrating tube method	1265.1
352.7 K, 10000 kPa, Bellows volumetry	1256
352.7 K, 20000 kPa, Bellows volumetry	1262
352.7 K, 30000 kPa, Bellows volumetry	1268
352.7 K, 40000 kPa, Bellows volumetry	1274
352.7 K, 50000 kPa, Bellows volumetry	1280
352.7 K, 60000 kPa, Bellows volumetry	1285
352.7 K, 70000 kPa, Bellows volumetry	1290
352.7 K, 80000 kPa, Bellows volumetry	1295
352.7 K, 90000 kPa, Bellows volumetry	1300
352.7 K, 100000 kPa, Bellows volumetry	1305
352.7 K, 110000 kPa, Bellows volumetry	1309
352.7 K, 120000 kPa, Bellows volumetry	1314
352.7 K, 130000 kPa, Bellows volumetry	1318
352.7 K, 140000 kPa, Bellows volumetry	1322
352.7 K, 150000 kPa, Bellows volumetry	1326
352.7 K, 160000 kPa, Bellows volumetry	1330
352.7 K, 170000 kPa, Bellows volumetry	1334
352.7 K, 180000 kPa, Bellows volumetry	1338
352.7 K, 190000 kPa, Bellows volumetry	1342
352.7 K, 200000 kPa, Bellows volumetry	1345
353.15 K, 101.33 kPa, Vibrating tube method	1249.8
372.9 K, 10000 kPa, Bellows volumetry	1241
372.9 K, 20000 kPa, Bellows volumetry	1248
372.9 K, 30000 kPa, Bellows volumetry	1254
372.9 K, 40000 kPa, Bellows volumetry	1260
372.9 K, 50000 kPa, Bellows volumetry	1266
372.9 K, 60000 kPa, Bellows volumetry	1271
372.9 K, 70000 kPa, Bellows volumetry	1277
372.9 K, 80000 kPa, Bellows volumetry	1282
372.9 K, 90000 kPa, Bellows volumetry	1287
372.9 K, 100000 kPa, Bellows volumetry	1292
372.9 K, 110000 kPa, Bellows volumetry	1296
372.9 K, 120000 kPa, Bellows volumetry	1301
372.9 K, 130000 kPa, Bellows volumetry	1306
372.9 K, 140000 kPa, Bellows volumetry	1310
372.9 K, 150000 kPa, Bellows volumetry	1314
372.9 K, 160000 kPa, Bellows volumetry	1318
372.9 K, 170000 kPa, Bellows volumetry	1322
372.9 K, 180000 kPa, Bellows volumetry	1326
372.9 K, 190000 kPa, Bellows volumetry	1330
372.9 K, 200000 kPa, Bellows volumetry	1334
393 K, 10000 kPa, Bellows volumetry	1226
393 K, 20000 kPa, Bellows volumetry	1233
393 K, 30000 kPa, Bellows volumetry	1240
393 K, 40000 kPa, Bellows volumetry	1246
393 K, 50000 kPa, Bellows volumetry	1252
393 K, 60000 kPa, Bellows volumetry	1258
393 K, 70000 kPa, Bellows volumetry	1264
393 K, 80000 kPa, Bellows volumetry	1269
393 K, 90000 kPa, Bellows volumetry	1274
393 K, 100000 kPa, Bellows volumetry	1279
393 K, 110000 kPa, Bellows volumetry	1284
393 K, 120000 kPa, Bellows volumetry	1289
393 K, 130000 kPa, Bellows volumetry	1293
393 K, 140000 kPa, Bellows volumetry	1298
393 K, 150000 kPa, Bellows volumetry	1302
393 K, 160000 kPa, Bellows volumetry	1306
393 K, 170000 kPa, Bellows volumetry	1310
393 K, 180000 kPa, Bellows volumetry	1314
393 K, 190000 kPa, Bellows volumetry	1318
393 K, 200000 kPa, Bellows volumetry	1322
412.9 K, 10000 kPa, Bellows volumetry	1211
412.9 K, 20000 kPa, Bellows volumetry	1219
412.9 K, 30000 kPa, Bellows volumetry	1226
412.9 K, 40000 kPa, Bellows volumetry	1232
412.9 K, 50000 kPa, Bellows volumetry	1239
412.9 K, 60000 kPa, Bellows volumetry	1245
412.9 K, 70000 kPa, Bellows volumetry	1251
412.9 K, 80000 kPa, Bellows volumetry	1256
412.9 K, 90000 kPa, Bellows volumetry	1262
412.9 K, 100000 kPa, Bellows volumetry	1267
412.9 K, 110000 kPa, Bellows volumetry	1272
412.9 K, 120000 kPa, Bellows volumetry	1277
412.9 K, 130000 kPa, Bellows volumetry	1282
412.9 K, 140000 kPa, Bellows volumetry	1286
412.9 K, 150000 kPa, Bellows volumetry	1291
412.9 K, 160000 kPa, Bellows volumetry	1295
412.9 K, 170000 kPa, Bellows volumetry	1299
412.9 K, 180000 kPa, Bellows volumetry	1303
412.9 K, 190000 kPa, Bellows volumetry	1307
412.9 K, 200000 kPa, Bellows volumetry	1311
432.8 K, 10000 kPa, Bellows volumetry	1197
432.8 K, 20000 kPa, Bellows volumetry	1205
432.8 K, 30000 kPa, Bellows volumetry	1212
432.8 K, 40000 kPa, Bellows volumetry	1219
432.8 K, 50000 kPa, Bellows volumetry	1226
432.8 K, 60000 kPa, Bellows volumetry	1232
432.8 K, 70000 kPa, Bellows volumetry	1238
432.8 K, 80000 kPa, Bellows volumetry	1244
432.8 K, 90000 kPa, Bellows volumetry	1250
432.8 K, 100000 kPa, Bellows volumetry	1255
432.8 K, 110000 kPa, Bellows volumetry	1260
432.8 K, 120000 kPa, Bellows volumetry	1265
432.8 K, 130000 kPa, Bellows volumetry	1270
432.8 K, 140000 kPa, Bellows volumetry	1275
432.8 K, 150000 kPa, Bellows volumetry	1279
432.8 K, 160000 kPa, Bellows volumetry	1284
432.8 K, 170000 kPa, Bellows volumetry	1288
432.8 K, 180000 kPa, Bellows volumetry	1292
432.8 K, 190000 kPa, Bellows volumetry	1297
432.8 K, 200000 kPa, Bellows volumetry	1301
452.5 K, 10000 kPa, Bellows volumetry	1183
452.5 K, 20000 kPa, Bellows volumetry	1191
452.5 K, 30000 kPa, Bellows volumetry	1199
452.5 K, 40000 kPa, Bellows volumetry	1206
452.5 K, 50000 kPa, Bellows volumetry	1213
452.5 K, 60000 kPa, Bellows volumetry	1219
452.5 K, 70000 kPa, Bellows volumetry	1226
452.5 K, 80000 kPa, Bellows volumetry	1232
452.5 K, 90000 kPa, Bellows volumetry	1237
452.5 K, 100000 kPa, Bellows volumetry	1243
452.5 K, 110000 kPa, Bellows volumetry	1248
452.5 K, 120000 kPa, Bellows volumetry	1254
452.5 K, 130000 kPa, Bellows volumetry	1259
452.5 K, 140000 kPa, Bellows volumetry	1263
452.5 K, 150000 kPa, Bellows volumetry	1268
452.5 K, 160000 kPa, Bellows volumetry	1273
452.5 K, 170000 kPa, Bellows volumetry	1277
452.5 K, 180000 kPa, Bellows volumetry	1282
452.5 K, 190000 kPa, Bellows volumetry	1286
452.5 K, 200000 kPa, Bellows volumetry	1290
472.3 K, 10000 kPa, Bellows volumetry	1169
472.3 K, 20000 kPa, Bellows volumetry	1177
472.3 K, 30000 kPa, Bellows volumetry	1185
472.3 K, 40000 kPa, Bellows volumetry	1193
472.3 K, 50000 kPa, Bellows volumetry	1200
472.3 K, 60000 kPa, Bellows volumetry	1207
472.3 K, 70000 kPa, Bellows volumetry	1213
472.3 K, 80000 kPa, Bellows volumetry	1220
472.3 K, 90000 kPa, Bellows volumetry	1226
472.3 K, 100000 kPa, Bellows volumetry	1231
472.3 K, 110000 kPa, Bellows volumetry	1237
472.3 K, 120000 kPa, Bellows volumetry	1242
472.3 K, 130000 kPa, Bellows volumetry	1247
472.3 K, 140000 kPa, Bellows volumetry	1253
472.3 K, 150000 kPa, Bellows volumetry	1257
472.3 K, 160000 kPa, Bellows volumetry	1262
472.3 K, 170000 kPa, Bellows volumetry	1267
472.3 K, 180000 kPa, Bellows volumetry	1271
472.3 K, 190000 kPa, Bellows volumetry	1276
472.3 K, 200000 kPa, Bellows volumetry	1280

— the NIST ThermoML archive (doi:10.1021/je800224k)
